Biological target: Tubulin beta-1 chain (Homo sapiens, UniProt Q9H4B7)
Assay: Concentration required for 50% inhibition of tubulin polymerization

Sequence of Tubulin beta-1 chain (Q9H4B7 whole entry): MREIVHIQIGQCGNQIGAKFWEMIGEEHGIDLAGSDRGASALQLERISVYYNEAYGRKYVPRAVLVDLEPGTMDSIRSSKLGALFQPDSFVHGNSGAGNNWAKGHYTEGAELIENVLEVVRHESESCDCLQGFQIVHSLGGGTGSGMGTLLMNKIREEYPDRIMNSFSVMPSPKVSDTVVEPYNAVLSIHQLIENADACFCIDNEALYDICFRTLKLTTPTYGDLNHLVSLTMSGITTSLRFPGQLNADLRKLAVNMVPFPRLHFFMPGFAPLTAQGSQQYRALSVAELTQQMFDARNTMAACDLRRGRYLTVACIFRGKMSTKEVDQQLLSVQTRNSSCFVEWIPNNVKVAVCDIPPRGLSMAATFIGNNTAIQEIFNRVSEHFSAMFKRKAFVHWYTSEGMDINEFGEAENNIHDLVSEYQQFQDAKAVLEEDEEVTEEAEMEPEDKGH

First: COc1cc(C(=O)/C=C/c2ccc(O)c(O)c2)cc(OC)c1OC
Second: COc1ccc(/C=C/C(=O)c2cc(OC)c(OC)c(OC)c2)cc1O
The IC50 of the first is higher: > 100 µM for the first, 0.62 µM for the second. The second is the more potent here.

Going from `COc1ccc(OCc2cc(OC)c(OC)c(OC)c2)cc1O` to `COc1ccc(COc2cc(OC)c(OC)c(OC)c2)cc1O`, the IC50 falls from 21 µM to 7.2 µM (2.9-fold). The second is the more potent here.

First: COc1ccc(Nc2cc(OC)c(OC)c(OC)c2)cc1O
Second: COc1ccc(Oc2cc(OC)c(OC)c(OC)c2)cc1O
The IC50 of the first is higher: > 100 µM for the first, 11 µM for the second. The second is the more potent here.

Going from `COc1ccc(OCc2cc(OC)c(OC)c(OC)c2)cc1C=O` to `COc1ccc(OCc2cc(OC)c(OC)c(OC)c2)cc1CO`, the IC50 rises from 0.56 µM to > 100 µM.

Compared with `COc1ccc(COc2cc(OC)c(OC)c(OC)c2)cc1OCC=O`, `COc1ccc(COc2cc(OC)c(OC)c(OC)c2)cc1OCC(O)CO` (stereo not given) is higher in IC50: 41 µM for the first, > 100 µM for the second. The first is the more potent here.

First: COc1ccc(/C=C\c2ccc(C)c(C)c2)cc1O
Second: COc1ccc(/C=C\c2ccc(C)c(C)c2)cc1F
The IC50 of the first is 2.1-fold lower: 3.1 µM for the first, 6.6 µM for the second.

`COc1ccc(/C=C\c2cc(F)c(F)c(F)c2)cc1O` and `COc1ccc(/C=C\c2cc(F)c(F)c(F)c2)cc1F` are within 1.5-fold of each other in IC50: 4.5 µM for the first, 5.5 µM for the second.

Compared with `COc1cc(C(=O)/C=C/c2cc(F)c(OC)c(F)c2)cc(OC)c1OC`, `COc1cc(C(=O)/C(C)=C/c2cc(F)c(OC)c(F)c2)cc(OC)c1OC` is 5-fold lower in IC50: 12 µM for the first, 2.4 µM for the second. The second is the more potent here.

Compared with `COc1ccc(/C=C(/C)c2cc(OC)c(OC)c(OC)c2)cc1`, `COc1ccc(/C=C(/C)c2cc(OC)c(OC)c(OC)c2)cc1O` is 10-fold lower in IC50: 1.3 µM for the first, 0.13 µM for the second. The second is the more potent here.

First: COc1ccc(/C=C(\C)C(O)c2cc(OC)c(OC)c(OC)c2)cc1O (stereo not given)
Second: COc1ccc(/C=C(\C)C(=O)c2cc(OC)c(OC)c(OC)c2)cc1O
The IC50 of the first is higher: > 10 µM for the first, 0.46 µM for the second.

Compared with `COc1ccc(/C=C\c2cc(C)c(C)c(C)c2)cc1F`, `COc1ccc(/C=C\c2cc(C)c(C)c(C)c2)cc1O` is 5.8-fold lower in IC50: 0.7 µM for the first, 0.12 µM for the second. The second is the more potent here.

Compared with `COc1ccc(C(=O)/C=C/c2cc(F)c(OC)c(F)c2)c(OC)c1OC`, `COc1ccc(/C=C/C(=O)c2ccc(OC)c(OC)c2OC)cc1F` is 3.9-fold lower in IC50: 31 µM for the first, 7.9 µM for the second.

First: COc1ccc(C(=O)/C=C/c2cc(O)c(O)c(O)c2)c(OC)c1OC
Second: COc1ccc(/C=C/C(=O)c2ccc(OC)c(OC)c2OC)cc1O
The IC50 of the first is higher: > 100 µM for the first, 0.45 µM for the second.

First: CCOc1cc(/C=C\c2ccc(OC)c(F)c2)cc(OCC)c1OCC
Second: CCOc1cc(/C=C\c2ccc(OC)c(O)c2)cc(OCC)c1OCC
The IC50 of the first is 2.4-fold higher: 1.2 µM for the first, 0.5 µM for the second.

Going from `COc1ccc(/C=C\c2cc(C)c(C)c(C)c2)cc1` to `COc1ccc(/C=C\c2cc(OC)c(OC)c(OC)c2)cc1`, the IC50 falls from 0.65 µM to 0.2 µM (3.2-fold). The second is the more potent here.

Going from `COc1ccc(/C=C/C(=O)c2cc(OC)c(OC)c(OC)c2)cc1F` to `COc1ccc(/C=C/C(=O)c2cc(OC)c(OC)c(OC)c2)cc1N`, the IC50 rises from 1.2 µM to 2 µM (1.7-fold). The first is the more potent here.

Going from `COc1ccc(CC(C)C(=O)c2cc(OC)c(OC)c(OC)c2)cc1O` (stereo not given) to `CC/C(=C/c1ccc(OC)c(O)c1)c1cc(OC)c(OC)c(OC)c1`, the IC50 falls from 4 µM to 0.13 µM (31-fold). The second is the more potent here.

First: COc1ccc(/C(C)=C/c2cc(OC)c(OC)c(OC)c2)cc1O
Second: CO/C(=C\c1ccc(OC)c(O)c1)C(=O)c1cc(OC)c(OC)c(OC)c1
The IC50 of the first is 18-fold higher: 9 µM for the first, 0.51 µM for the second.

First: CO/C(=C\c1cc(F)c(OC)c(F)c1)C(=O)c1cc(OC)c(OC)c(OC)c1
Second: CO/C(=C\c1ccc(OC)c(F)c1)C(=O)c1cc(OC)c(OC)c(OC)c1
The IC50 of the first is 3.6-fold higher: 1.7 µM for the first, 0.47 µM for the second.

First: COc1ccc(/C=C\c2cc(O)c(OC)c(OC)c2)cc1F
Second: COc1cc(/C=C\c2ccc(C)c(C)c2)cc(OC)c1OC
The IC50 of the first is 1.6-fold lower: 1.25 µM for the first, 2 µM for the second. The first is the more potent here.

Compared with `COc1ccc(/C=C(\C)C(=O)c2cc(OC)c(OC)c(OC)c2)cc1[N+](=O)[O-]`, `COc1ccc(/C=C(\C)C(=O)c2cc(OC)c(OC)c(OC)c2)cc1F` is lower in IC50: > 10 µM for the first, 0.65 µM for the second.

`COc1ccc(/C=C\c2ccccc2)cc1O` and `CCc1ccc(/C=C\c2cc(OC)c(OC)c(OC)c2)cc1` are within 1.5-fold of each other in IC50: 2.5 µM for the first, 3.4 µM for the second.

Work on `COc1ccc(OC)c(C(=O)/C(C)=C/c2ccc(N(C)C)cc2)c1` yielded an IC50 of 10 µM.

Reference: ChEMBL document CHEMBL1141176, “Quantitative structure-activity relationship (5D-QSAR) study of combretastatin-like analogues as inhibitors of tubulin assembly” (J Med Chem, 2005)
